According to the supplement of paper PMC6965134:
± gives the standard deviation of the averaged measurements.

Experiment: TIMS collisional cross section (CCS, N2) of the lipid ion; higher = larger ion cross section
Conditions: ionization mode: positive, one isomer drawn

SMILES | TIMS collisional cross section (sample type: Liver) | TIMS collisional cross section (sample type: plasma) | TIMS collisional cross section (sample type: HeLa)
CCCCCCCCCCCCCCCCCC(=O)OC[C@@H](COC(=O)CCCCCCCCCCCCCCC)OC(=O)CCCCCCCCCCCCCCCCC [TG 16:0_18:0_18:0] (ion (formula + adduct): [C55H106O6+NH4] 1+) | 326.7 Å² | 326.7 Å² | –
CCCCCCCC/C=C\CCCCCCCC(=O)OC[C@@H](COC(=O)CCCCCCCCCCCCCCC)OC(=O)CCCCCCCCCCCCCCCCC [TG 16:0_18:0_18:1] (ion (formula + adduct): [C55H104O6+NH4] 1+) | 324.5 ± 0.14 Å² | 324.45 ± 0.35 Å² | 324.4 Å²
CCCCCCCCCCCCCCCCCCC(=O)OC[C@@H](COC(=O)CCCCCCCCCCCCCCC)OC(=O)CCCCCCCCCCCCCCCCC [TG 16:0_18:0_19:0] (ion (formula + adduct): [C56H108O6+NH4] 1+) | 329.3 Å² | 329 Å² | –
CCCCCCCCCCCCCCCCCCCC(=O)OC[C@@H](COC(=O)CCCCCCCCCCCCCCC)OC(=O)CCCCCCCCCCCCCCCCC [TG 16:0_18:0_20:0] (ion (formula + adduct): [C57H110O6+NH4] 1+) | – | 332.5 ± 0.14 Å² | 332.05 ± 0.21 Å²
CCCCCCCC/C=C\CCCCCCCCCC(=O)OC[C@@H](COC(=O)CCCCCCCCCCCCCCC)OC(=O)CCCCCCCCCCCCCCCCC [TG 16:0_18:0_20:1] (ion (formula + adduct): [C57H108O6+NH4] 1+) | – | – | 330.3 Å²
CCCCCCCCCCCCCCCCCCCCCC(=O)OC[C@@H](COC(=O)CCCCCCCCCCCCCCC)OC(=O)CCCCCCCCCCCCCCCCC [TG 16:0_18:0_22:0] (ion (formula + adduct): [C59H114O6+NH4] 1+) | 338.3 Å² | 337.55 ± 0.21 Å² | 337.8 Å²
CC/C=C\C/C=C\C/C=C\C/C=C\C/C=C\CCCCCC(=O)OC[C@@H](COC(=O)CCCCCCCCCCCCCCC)OC(=O)CCCCCCCCCCCCCCCCC [TG 16:0_18:0_22:5] (ion (formula + adduct): [C59H104O6+NH4] 1+) | – | – | 330.6 Å²

Now from value to compound:

TIMS collisional cross section (sample type: Liver) | TIMS collisional cross section (sample type: plasma) | TIMS collisional cross section (sample type: HeLa) | SMILES
322.4 Å² | 322.45 ± 0.21 Å² | 322 Å² | CCCCCCCC/C=C\CCCCCCCC(=O)OC[C@@H](COC(=O)CCCCCCCCCCCCCCC)OC(=O)CCCCCCC/C=C\CCCCCCCC [TG 16:0_18:1_18:1] (ion (formula + adduct): [C55H102O6+NH4] 1+)
314.1 Å² | 319.7 Å² | – | CCCCC/C=C\C/C=C\CCCCCCCC(=O)OC[C@@H](COC(=O)CCCCCCCCCCCCCCC)OC(=O)CCCCCCC/C=C\CCCCCCCC [TG 16:0_18:1_18:2] (ion (formula + adduct): [C55H100O6+NH4] 1+)
– | – | 325.5 Å² | CCCCCCCC/C=C\CCCCCCCC(=O)O[C@@H](COC(=O)CCCCCCC/C=C\CCCCCCCCC)COC(=O)CCCCCCCCCCCCCCC [TG 16:0_18:1_19:1] (ion (formula + adduct): [C56H104O6+NH4] 1+)
330.6 Å² | – | – | CCCCCCCC/C=C\CCCCCCCC(=O)O[C@H](COC(=O)CCCCCCCCCCCCCCC)COC(=O)CCCCCCCCCCCCCCCCCCC [TG 16:0_18:1_20:0] (ion (formula + adduct): [C57H108O6+NH4] 1+)
– | – | 328.4 Å² | CCCCCCCC/C=C\CCCCCCCCCC(=O)OC[C@@H](COC(=O)CCCCCCCCCCCCCCC)OC(=O)CCCCCCC/C=C\CCCCCCCC [TG 16:0_18:1_20:1] (ion (formula + adduct): [C57H106O6+NH4] 1+)
– | 324.2 Å² | 324.5 Å² | CCCCC/C=C\C/C=C\C/C=C\C/C=C\CCCC(=O)OC[C@@H](COC(=O)CCCCCCCCCCCCCCC)OC(=O)CCCCCCC/C=C\CCCCCCCC [TG 16:0_18:1_20:4] (ion (formula + adduct): [C57H100O6+NH4] 1+)
